Assay results: publication PMC11005426 (mBio, 2024)

Biological target: T1, ASFV topo II ATPase domain (African swine fever virus, UniProt A0A2X0THW2)
T1 construct: gene P1192R CDS
Settings: Mg2+; ATP-binding site; 0.5 mM AMPPNP, 5 mM MgCl2, HEPES pH 7.5

Nc1ncnc2c1ncn2[C@@H]1O[C@H](COP(=O)(O)OP(=O)(O)NP(=O)(O)O)[C@@H](O)[C@H]1O [AMPPNP]
X-ray crystal structure, 2.20 A: crystal structure of the isolated ATPase domain from ASFV topo II in complex with AMPPNP
